These results are taken from patent US9119877B2, “Therapeutic combination comprising a Cdc7 inhibitor and an anti-neoplastic agent” (NERVIANO MEDICAL SCIENCES S.R.L., priority 2010, dated 2015).

Where two headings read alike, the source gives them in different places.

Data set [1] deals with L-363 human Multiple Myeloma cell line. Kind of data set: cell proliferation (CellTiterGlo), single agents and combinations, L-363. The format is cell-based. The method, then: (§1) Materials and methods. Exponentially growing human breast cancer (Mcf-7), human ovarian cancer (A-2780), human multiple myeloma (L-363), human colorectal cancer (HCT-116) and human melanoma (A-375) cell lines were seeded and incubated at 37° C. in a humidified 5% CO2 atmosphere. Drugs were added to the experimental culture, and incubations were carried out at 37° C. for 72 hours in the dark. Scalar doses of the compound of formula (I) and antineoplastic agents were added to the medium starting from 24 hours after seeding. Drug solutions were prepared immediately before use. At the end of treatment, cell proliferation was determined by an intracellular adenosine triphosphate monitoring system (CellTiterGlo-Promega) using an Envision (PerkinElmer) reader. Inhibitory activity was evaluated comparing treated versus control data using the Assay Explorer (MDL) program. The dose inhibiting 50% of cell growth was calculated using sigmoidal interpolation curve. Combination indices (C.I.) were calculated using a proprietary computer program for multiple drug effect analysis based on the equation of Chou-Talalay (Adv Enzyme Regul 1984;22:27-55) for mutually nonexclusive drugs, where a C.I. of <1 indicates a more than additive effect: C.I.: >3 strong antagonism; 1.3-3 antagonism; 1.2-0.8 additivity; 0.8-0.3 synergism; <0.3 strong synergism.
(In general: In ATP-based viability assays light output follows the ATP content of the culture.)

The test system of data set [2] is Mcf-7 human breast adenocarcinoma cell line. The data set can be described thus: cell proliferation (CellTiterGlo), single agents and combinations, Mcf-7. The format is cell-based. How it is done: (§2) Materials and methods. […] Drugs were added to the experimental culture, and incubations were carried out at 37° C. for 72 hours in the dark. […] Drug solutions were prepared immediately before use. At the end of treatment, cell proliferation was determined by an intracellular adenosine triphosphate monitoring system (CellTiterGlo-Promega) using an Envision (PerkinElmer) reader. Inhibitory activity was evaluated comparing treated versus control data using the Assay Explorer (MDL) program. The dose inhibiting 50% of cell growth was calculated using sigmoidal interpolation curve.

For data set [3] the following is noted: female, CD1 Nu/Nu, mouse, in vivo. How it is done:
(§3) CD1 Nu/Nu female mice were obtained from Charles River, Italy, The animals were maintained in cages using steam autoclaved (sterile) bedding, sterilized diet and water were offered ad libitum. MX-1 human breast carcinoma (from American Type Culture Collection) was maintained by subcutaneous (SC) transplantation in athymic mice. Viable MX-1 tumor fragments (weighting 20-30 mg) were obtained aseptically from stock tumors and transplanted subcutaneously by trocar implantation into the left flank of athymic nude mice. Animals were examined regularly for the appearance of tumors.
(§4) Docetaxel was administered by intravenous route at the dose of 5 mg/kg on days 1, 8, 15. […] Tumor growth and body weight were measured every 3 days, Tumor growth was assessed by caliper. The two diameters were recorded and the tumor weight was calculated according to the following formula: length (mm)×width^2/2. The effect of the antitumor treatment was evaluated as the delay in the onset of an exponential growth of the tumor (see for references Anticancer drugs 7:437-60, 1996). This delay (T-C value) was defined as the difference of time (in days) required for the treatment group (T) and the control group (C) tumors to reach a predetermined size (1 g). Toxicity was evaluated on the basis of body weight reduction.

The test system of data set [4] is HCT-116 human colon cancer tumors. Kind of data set: tumor growth delay, HCT-116 xenograft, combination with irinotecan. The data set is classed as in vivo. Particulars: HCT-116 in Balb Nu/Nu male mice, time to reach 1 g. How it is done: (§5) Balb, Nu/Nu male mice, from Harlan (Italy), were maintained in agreement with the European Communities Council Directive no. 86/609/EEC, in cages with paper filter cover, food and bedding sterilized and acidified water. Fragments of HCT-116 human colon cancer tumors were implanted subcutaneously. The treatment started when tumors were palpable. […] Irinotecan was administered by intravenous route at the dose of 45 mg/kg on days 1, 5, 9. […] Tumor growth was assessed by caliper.

The test system of data set [5] is MX-1 human breast carcinoma. The data set can be described thus: tumor growth delay, MX-1 xenograft, combination with bevacizumab. The format is in vivo. Particulars: MX-1 in CD-1 Nu/Nu female mice, time to reach 1 g. The method, then:
(§6) Animals were examined regularly for the appearance of tumors. The treatment started when tumors were palpable. Compound of formula (I) was administered by oral route in a volume of 10 ml/kg at the daily dose of 20 mg/kg on days 2, 4, 6, 8, 10 and 12. Bevacizumab was administered by intravenous route at the dose of 20 mg/kg on days 1, 5, 9 and 13. When combined, compound of formula (I) was administered on days 2, 4, 6, 8, 10 and 12 and bevacizumab on days 1, 5, 9 and 13. […] Tumor growth was assessed by caliper.

Data set [6] has as its system A375 human melanoma cell line. The data set can be described thus: cell proliferation (CellTiterGlo), single agents and combinations, A375. The format is cell-based. Particulars: A-375, 72 h. How it is done:
as §2

Data set [7] relates to HCT116 human colon carcinoma cell line. The data set can be described thus: cell proliferation (CellTiterGlo), single agents and combinations, HCT116. The data set is classed as cell-based. The method, then: as §2
Data set [8] is described as follows: toxicity on the basis of body weight reduction, MX-1 study with bevacizumab. The format is in vivo. The method, then: as §6
Data set [9] has as its system A2780 human ovarian carcinoma cell line. Kind of data set: cell proliferation (CellTiterGlo), single agents and combinations, A2780. Particulars: single agent, 72 hours. The data set is classed as cell-based. How it is done:
as §1

Data set [10] relates to MX-1 human breast carcinoma. The data set can be described thus: tumor growth delay, MX-1 xenograft, combination with docetaxel. The data set is classed as in vivo. Particulars: MX-1 in CD1 Nu/Nu female mice, time to reach 1 g. The method, then:
as §3, §4

A short description of data set [11]: toxicity on the basis of body weight reduction, HCT-116 study with irinotecan. The data set is classed as in vivo. The method, then: as §5
The mark [12] stands for this setting: 20 mg/kg oral on days 2, 4, 6, 8, 10, 12.

Consider `CC1(C)CCC(c2ccc(Cl)cc2)=C(CN2CCN(c3ccc(C(=O)NS(=O)(=O)c4ccc(N[C@H](CCN5CCOCC5)CSc5ccccc5)c(S(=O)(=O)C(F)(F)F)c4)cc3)CC2)C1` [ABT-263, Navitoclax], for which the IC50 in data set [1] (L-363, single agent, 72 hours, Table 10, read-out: IC50 (μM) ABT-263) was determined as 7.3 µM.
As for `NC(=O)c1cc(-c2ccnc(N)n2)[nH]c1-c1ccc(Cl)cc1Cl` [Compound of formula (I), 5-(2-Amino-pyrimidin-4-yl)-2-(2,4-dichloro-phenyl)-1H-pyrrole-3-carboxylic acid amide], the IC50 was 1.1 µM in [2] (Homo sapiens, MCF7, 72 h, read-out: IC50 (μM) Compound of formula (I), Mcf-7, single agent, Table 1 (gemcitabine experiment)); 1.7 µM in [2] (Homo sapiens, MCF7, 72 h, read-out: IC50 (μM) Compound of formula (I), Mcf-7, single agent, Table 2 (cisplatin experiment)); 0.77 µM in [2] (Homo sapiens, MCF7, 72 h, read-out: IC50 (μM) Compound of formula (I), Mcf-7, single agent, Table 4 (SN-38 experiment)); 1.11 µM in data set [2] (Homo sapiens, MCF7, 72 h, read-out: IC50 (μM) Compound of formula (I), Mcf-7, single agent, Table 5 (etoposide experiment)); 0.67 µM in [2] (Homo sapiens, MCF7, 72 h, read-out: IC50 (μM) Compound of formula (I), Mcf-7, single agent, Table 6 (paclitaxel experiment)); 1.87 µM in data set [2] (Homo sapiens, MCF7, 72 h, read-out: IC50 (μM) Compound of formula (I), Mcf-7, single agent, Table 7 (erlotinib experiment)). The IC50 worked out at 0.767 µM in [2] (Homo sapiens, MCF7, 72 h, read-out: IC50 (μM) Compound of formula (I), Mcf-7, single agent, Table 8 (bortezomib experiment)); 0.38 µM in data set [1] (L-363, 72 h, read-out: IC50 (μM) Compound of formula (I)); 1.21 µM in data set [6] (read-out: IC50 (μM) Compound of formula (I), A375, single agent, Table 11 (dacarbazine, sequential experiment)); 0.86 µM in data set [6] (read-out: IC50 (μM) Compound of formula (I), A375, single agent, Table 12 (dacarbazine, simultaneous experiment)); 0.8 µM in data set [7] (HCT-116, 72 h, read-out: IC50 (μM) Compound of formula (I)); 0.52 µM in data set [9] (Homo sapiens, Table 3 (cisplatin experiment), read-out: IC50 (μM) Compound of formula (I)). Besides, the Toxicity in [3] (po, 20 mg/kg) is reported as 0/7; in [8] (female, CD-1 Nu/Nu, mouse, in vivo, po, 20 mg/kg), 0/7; in [11] (male, Balb Nu/Nu, mouse, in vivo, po, 20 mg/kg), 0/7. Besides, the “T-C” value in data set [4] (setting [12]) is on record as 4 days; in data set [5] (setting [12]), 13 days; in data set [10] (20 mg/kg oral on days 2, 4, 6, 9, 11, 13) it was 10 days.
Regarding `Nc1ccn([C@@H]2O[C@H](CO)[C@@H](O)C2(F)F)c(=O)n1` [Gemcitabine, gemcitabine], the IC50 in [2] (Homo sapiens, MCF7, Mcf-7, single agent, 72 hours, Table 1, read-out: IC50 (μM) Gemcitabine) is 0.79 µM.
As for `CCc1c2c(nc3ccc(O)cc13)-c1cc3c(c(=O)n1C2)COC(=O)[C@]3(O)CC` [SN38, SN-38], in data set [2] (Mcf-7, single agent, 72 hours, Table 4, read-out: IC50 (μM) SN38), the IC50 was found to be 0.024 µM.
As for `CC(C)C[C@H](NC(=O)[C@H](Cc1ccccc1)NC(=O)c1cnccn1)B(O)O` [bortezomib], the IC50 in data set [2] (Homo sapiens, MCF7, Mcf-7, single agent, 72 hours, Table 8, read-out: IC50 (μM) bortezomib) amounted to 0.011 µM; in [7] (HCT-116, HCT116, single agent, 72 hours, Table 9, read-out: IC50 (μM) bortezomib), 0.009 µM.
Take `N.N.[Cl][Pt][Cl]` [cisplatin]: the IC50 in data set [2] (Mcf-7, single agent, 72 hours, Table 2, read-out: IC50 (μM) cisplatin) was found to be 10.2 µM; in data set [9] (Table 3, read-out: IC50 (μM) cisplatin), 3 µM.
With `CN(C)/N=N/c1[nH]cnc1C(N)=O` [dacarbazine], the IC50 stood at 37 µM in data set [6] (A375, single agent, Table 11 (sequential experiment), read-out: IC50 (μM) dacarbazine) and 83 µM in data set [6] (A375, single agent, Table 12 (simultaneous experiment), read-out: IC50 (μM) dacarbazine).
Turning to `CC(=O)O[C@@]12CO[C@@H]1C[C@H](O)[C@@]1(C)C(=O)[C@H](O)C3=C(C)[C@@H](OC(=O)[C@H](O)[C@@H](NC(=O)OC(C)(C)C)c4ccccc4)C[C@@](O)([C@@H](OC(=O)c4ccccc4)[C@H]21)C3(C)C` [docetaxel], the Toxicity in data set [3] (iv, 5 mg/kg) is listed as 0/7. Further, the “T-C” value in [10] (5 mg/kg intravenous on days 1, 8, 15) was 9 days.
Consider `C#Cc1cccc(Nc2ncnc3cc(OCCOC)c(OCCOC)cc23)c1` [erlotinib], for which, in data set [2] (Homo sapiens, MCF7, Mcf-7, single agent, 72 hours, Table 7, read-out: IC50 (μM) erlotinib), the IC50 was determined as 74.8 µM.
As to `COc1cc([C@@H]2c3cc4c(cc3[C@@H](O[C@@H]3O[C@@H]5CO[C@@H](C)O[C@H]5[C@H](O)[C@H]3O)[C@H]3COC(=O)[C@H]23)OCO4)cc(OC)c1O` [etoposide], in data set [2] (Homo sapiens, MCF7, Mcf-7, single agent, 72 hours, Table 5, read-out: IC50 (μM) etoposide), the IC50 was found to be 12.7 µM.
With `CCc1c2c(nc3ccc(OC(=O)N4CCC(N5CCCCC5)CC4)cc13)-c1cc3c(c(=O)n1C2)COC(=O)[C@]3(O)CC` [irinotecan], the “T-C” value in data set [4] (45 mg/kg intravenous on days 1, 5, 9) stood at 18 days. Moreover, the Toxicity in data set [11] (HCT-116 study, 45 mg/kg intravenous on days 1, 5, 9, body weight reduction) is listed as 0/7.
For `CC(=O)O[C@H]1C(=O)[C@@]2(C)[C@H]([C@H](OC(=O)c3ccccc3)[C@]3(O)C[C@H](OC(=O)[C@H](O)[C@@H](NC(=O)c4ccccc4)c4ccccc4)C(C)=C1C3(C)C)[C@]1(OC(C)=O)CO[C@@H]1C[C@@H]2O` [paclitaxel], in data set [2] (Homo sapiens, MCF7, Mcf-7, single agent, 72 hours, Table 6, read-out: IC50 (μM) paclitaxel), the IC50 turned out to be 0.008 µM.
Take bevacizumab: the “T-C” value in data set [5] (20 mg/kg intravenous on days 1, 5, 9, 13) came to 13 days. The Toxicity in [8] (MX-1 study, 20 mg/kg intravenous on days 1, 5, 9, 13, body weight reduction) was 0/7.

What is called IC50 is the concentration needed to halve the response being measured.
